Measured values taken from patent US12351571B2, “Substituted quinoxaline compounds as inhibitors of FGFR tyrosine kinases” (ARRAY BIOPHARMA INC., priority 2018, dated 2025).

How the values were obtained:
dephosphorylated FGFR1 = dephosphorylated FGFR1 (Homo sapiens (Human), UniProt P11362); test: FGFR Enzyme Binding Assay (HTRF tracer displacement), FGFR1; details: 5 nM dephosphorylated FGFR1, 60 minute incubation at 22° C.; read-out: FGFR1 Enz Binding IC50
Description: (§1) The potency of compounds inhibiting human isoforms of FGFR kinase was determined using Life Technologies' Homogeneous Time Resolved Fluorescence (HTRF)-based binding assay technology. An incubation was conducted with either 5 nM dephosphorylated FGFR1 (Array Biopharma, p1702; SEQ ID NO: 1, amino acids 458 to 765, dephosphorylated by co-expression with PTP1b (protein tyrosine phosphatase 1B)), 5 nM dephosphorylated FGFR2 (Life Technologies, Cat. No. PV4106 that had been dephosphorylated with Lambda protein phosphatase (New England Biolabs, cat #P0753)) or 5 nM phosphorylated FGFR3 (Array Biopharma, p1836; SEQ ID NO: 5, amino acids 449 to 759), 50 nM Kinase Tracer 236 (Life Technologies Cat. No. PR9078A), 2 nM Biotin-anti-6HIS (Life Technologies Cat. No. PV6090) and 2 nM Europium-Streptavidin (Life Technologies Cat. No. PV6025) along with test compound in a buffer consisting of 50 mM HEPES ((4-(2-hydroxyethyl)-1-piperazineethanesulfonic acid, pH 7.5), 5 mM MgCl2, 0.005% Triton X-100, 1 mM DTT, 1 mM NaVO4 and 2% DMSO in a final volume of 12 μL Compounds were typically prepared as a 3-fold or 4-fold serial dilution in DMSO and added to the assay to give the appropriate final concentration. After a 60 minute incubation at 22° C., the extent of tracer displacement was determined using a PerkinElmer EnVision multimode plate reader via HTRF dual wavelength detection, and the percent of control (POC) was calculated using a ratiometric emission factor. One hundred POC was determined using no test compound, and 0 POC was determined in the presence of 1 μM of an appropriate control inhibitor. A 4-parameter logistic curve was fit to the POC values as a function of the concentration of compound, and the IC50 value was the point where the best-fit curve crossed 50 POC.

dephosphorylated FGFR2 = dephosphorylated FGFR2 (Homo sapiens (Human), UniProt P21802); test: FGFR Enzyme Binding Assay (HTRF tracer displacement), FGFR2; details: 5 nM dephosphorylated FGFR2, 60 minute incubation at 22° C.; read-out: FGFR2 Enz Binding IC50
dephosphorylated FGFR2, sequence (P21802 22-821): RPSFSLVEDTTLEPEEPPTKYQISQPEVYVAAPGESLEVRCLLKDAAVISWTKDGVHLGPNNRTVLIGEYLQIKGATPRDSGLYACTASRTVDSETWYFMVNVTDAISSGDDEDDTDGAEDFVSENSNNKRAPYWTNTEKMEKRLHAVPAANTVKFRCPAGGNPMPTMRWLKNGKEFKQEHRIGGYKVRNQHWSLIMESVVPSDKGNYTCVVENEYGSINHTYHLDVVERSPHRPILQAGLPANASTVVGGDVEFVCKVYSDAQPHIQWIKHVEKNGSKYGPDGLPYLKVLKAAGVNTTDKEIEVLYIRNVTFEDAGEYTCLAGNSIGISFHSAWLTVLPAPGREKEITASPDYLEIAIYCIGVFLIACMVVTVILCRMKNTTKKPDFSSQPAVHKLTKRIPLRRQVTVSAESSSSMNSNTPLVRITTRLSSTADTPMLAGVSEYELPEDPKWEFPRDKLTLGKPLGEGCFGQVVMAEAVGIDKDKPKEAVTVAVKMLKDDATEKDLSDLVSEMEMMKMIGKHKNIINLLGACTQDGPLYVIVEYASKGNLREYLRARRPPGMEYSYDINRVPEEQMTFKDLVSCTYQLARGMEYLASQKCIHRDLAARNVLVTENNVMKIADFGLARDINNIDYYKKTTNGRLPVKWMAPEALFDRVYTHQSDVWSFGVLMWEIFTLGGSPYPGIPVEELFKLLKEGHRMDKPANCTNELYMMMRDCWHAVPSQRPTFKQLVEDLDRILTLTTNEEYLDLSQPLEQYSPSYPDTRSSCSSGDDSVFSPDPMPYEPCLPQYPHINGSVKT
Description: as §1

human wild type FGFR2 = human wild type FGFR2 (Homo sapiens (Human), UniProt P21802); test: FGFR2 pFGFR Cell Assay; type: cell-based; details: HEK-293 cells, 1 hour compound, 30 ng/ml human FGF-acidic, ELISA
human wild type FGFR2, sequence (P21802 22-821): as above
Description: (§2) HEK-293 cells transfected with dox-inducible human wild type FGFR2 (SEQ ID NO: 3) were plated in a collagen or poly-D-lysine coated 96 well flat bottom plates at 4×10^5 cells/well in complete DMEM medium containing 10% FBS and 1 μg/ml doxycycline and allowed to attach for 24 h at 37° C., 5% CO2. Cells were treated with compound using 1:3 serial dilutions with a maximum final concentration of 5 μM. Compound was incubated on cells for 1 hour at 37° C., 5% CO2. Cells were then stimulated with a final concentration of 30 ng/ml human FGF-acidic (R&D Systems Cat number 232-FA/CF) for 5 minutes at 37° C., 5% CO2. Medium was removed and cells were lysed with lysis buffer containing phosphatase and protease inhibitors. Phospho FGFR2 was measured by ELISA (R&D Systems cat. no. DYC684). The ELISA captures total FGFR2 and detects total phospho tyrosine. Optical density was measured for each well using a Versamax reader at a wavelength of 450 nm. 100 POC was determined using no test compounds and 0 POC was determined using a control compound. The POC values were fit to a 4-parameter logistic curve as a function of the concentration of the compound, and the IC50 value is the point where the curve crosses 50 POC.

human wild type FGFR3 = human wild type FGFR3 (Homo sapiens (Human), UniProt P22607); test: FGFR3 pFGFR Cell Assay; type: cell-based; details: HEK-293 cells, 1 hour compound, 100 ng/ml human FGF-acidic, ELISA
human wild type FGFR3, sequence (P22607 23-806): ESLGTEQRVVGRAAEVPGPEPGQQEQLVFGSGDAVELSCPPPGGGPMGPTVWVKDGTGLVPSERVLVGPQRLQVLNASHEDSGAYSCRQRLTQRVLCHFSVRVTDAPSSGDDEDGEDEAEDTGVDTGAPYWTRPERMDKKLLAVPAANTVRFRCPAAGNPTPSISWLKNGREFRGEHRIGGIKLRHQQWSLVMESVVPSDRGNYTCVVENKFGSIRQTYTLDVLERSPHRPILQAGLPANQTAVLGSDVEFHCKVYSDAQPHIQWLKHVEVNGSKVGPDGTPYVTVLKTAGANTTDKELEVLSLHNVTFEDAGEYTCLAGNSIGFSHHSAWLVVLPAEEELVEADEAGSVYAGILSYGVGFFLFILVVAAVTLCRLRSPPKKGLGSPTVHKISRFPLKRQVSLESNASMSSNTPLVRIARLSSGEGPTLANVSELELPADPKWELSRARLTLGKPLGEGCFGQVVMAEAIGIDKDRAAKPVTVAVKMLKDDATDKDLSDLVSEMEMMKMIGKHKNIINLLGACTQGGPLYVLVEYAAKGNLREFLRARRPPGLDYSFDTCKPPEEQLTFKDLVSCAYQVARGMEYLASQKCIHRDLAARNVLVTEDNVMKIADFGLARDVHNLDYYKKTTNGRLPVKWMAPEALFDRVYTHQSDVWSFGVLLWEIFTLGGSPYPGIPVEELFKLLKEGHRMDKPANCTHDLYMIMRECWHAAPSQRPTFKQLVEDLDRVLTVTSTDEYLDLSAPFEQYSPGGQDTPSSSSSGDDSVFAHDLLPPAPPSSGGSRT
Description: as §2, with “FGFR3” for “FGFR2”, “5)” for “3)”, “top” for “maximum”, “100” for “30”, “FGF-acidic” for “FGF-acidic (R&D Systems Cat number 232-FA/CF)”, “cat DYC2719).” for “cat. no. DYC684).”

dephosphorylated FGFR1, sequence (P11362 458-765): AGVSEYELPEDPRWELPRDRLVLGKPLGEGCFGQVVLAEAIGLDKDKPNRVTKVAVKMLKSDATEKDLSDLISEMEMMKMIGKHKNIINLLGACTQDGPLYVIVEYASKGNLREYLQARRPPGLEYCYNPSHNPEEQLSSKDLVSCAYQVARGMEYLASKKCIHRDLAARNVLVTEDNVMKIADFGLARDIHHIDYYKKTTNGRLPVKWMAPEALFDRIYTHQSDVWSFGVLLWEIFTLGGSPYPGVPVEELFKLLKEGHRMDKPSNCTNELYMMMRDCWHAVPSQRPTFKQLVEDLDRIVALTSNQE

Structure (SMILES)	IC50 (dephosphorylated FGFR1) [nM]	IC50 (dephosphorylated FGFR2) [nM]	IC50 (human wild type FGFR2) [nM]	IC50 (human wild type FGFR3) [nM]
C=CC(=O)N1CC(C(=O)N2CCC(n3cc(-c4cnc5ccc(Nc6cc(OC)cc(OC)c6)cc5n4)cn3)CC2)C1 [Example 1, 1-(3-(4-(4-(7-((3,5-dimethoxyphenyl)amino)quinoxalin-2-yl)-1H-pyrazol-1-yl)piperidine-1-carbonyl)azetidin-1-yl)prop-2-en-1-one]	22	3	140	35
C=CC(=O)N1CC[C@@H](C(=O)N2CCC(n3cc(-c4cnc5ccc(Nc6cc(OC)cc(OC)c6)cc5n4)cn3)CC2)C1 [Example 2, (R)-1-(3-(4-(4-(7-((3,5-dimethoxyphenyl)amino)-quinoxalin-2-yl)-1H-pyrazol-1-yl)piperidine-1-carbonyl)pyrrolidin-1-yl)-prop-2-en-1-one]	24	6	117	121
C=CC(=O)N1CCC(C(=O)N2CCC(n3cc(-c4cnc5ccc(Nc6cc(OC)cc(OC)c6)cc5n4)cn3)CC2)CC1 [Example 3, 1-(4-(4-(4-(7-((3,5-dimethoxyphenyl)amino)-quinoxalin-2-yl)-1H-pyrazol-1-yl)piperidine-1-carbonyl)piperidin-1-yl)prop-2-en-1-one]	26	5	69	89
C=CC(=O)N1CC(F)(C(=O)N2CCC(n3cc(-c4cnc5ccc(Nc6cc(OC)cc(OC)c6)cc5n4)cn3)CC2)C1 [Example 4, 1-(3-(4-(4-(7-((3,5-dimethoxyphenyl)amino)-quinoxalin-2-yl)-1H-pyrazol-1-yl)piperidine-1-carbonyl)-3-fluoro-azetidin-1-yl)prop-2-en-1-one]	33	4		17
COc1cc(Nc2ccc3ncc(-c4cnn(C5CCN(C(=O)C6(F)CN(C(=O)/C=C/CN(C)C)C6)CC5)c4)nc3c2)cc(OC)c1 [Example 10, (E)-1-(3-(4-(4-(7-((3,5-dimethoxyphenyl)amino)-quinoxalin-2-yl)-1H-pyrazol-1-yl)piperidine-1-carbonyl)-3-fluoro-azetidin-1-yl)-4-(dimethylamino)but-2-en-1-one]	28	6	28	
COc1cc(Nc2ccc3ncc(-c4cn(C5CCN(C(=O)C6(F)CN(C(=O)/C=C/CN(C)C)C6)CC5)nc4C)nc3c2)cc(OC)c1 [Example 22, (E)-1-(3-(4-(4-(7-((3,5-dimethoxyphenyl)amino)-quinoxalin-2-yl)-3-methyl-1H-pyrazol-1-yl)-piperidine-1-carbonyl)-3-fluoroazetidin-1-yl)-4-(dimethylamino)but-2-en-1-one]	131	19	301	
C=CC(=O)N1CC(OC)(C(=O)N2CCC(n3cc(-c4cnc5ccc(Nc6cc(OC)cc(OC)c6)cc5n4)cn3)CC2)C1 [Example 24, 1-(3-(4-(4-(7-((3,5-dimethoxyphenyl)amino)-quinoxalin-2-yl)-1H-pyrazol-1-yl)piperidine-1-carbonyl)-3-methoxy-azetidin-1-yl)prop-2-en-1-one]	53	8	49	
C=CC(=O)N1CC(O)(C(=O)N2CCC(n3cc(-c4cnc5ccc(N(C)c6cc(OC)cc(OC)c6)cc5n4)cn3)CC2)C1 [Example 27, 1-(3-(4-(4-(7-((3,5-dimethoxyphenyl)(methyl)amino)quinoxalin-2-yl)-1H-pyrazol-1-yl)piperidine-1-carbonyl)-3-hydroxyazetidin-1-yl)prop-2-en-1-one]	13	3	37	
C#CCN(c1cc(OC)cc(OC)c1)c1ccc2ncc(-c3cnn(C4CCN(C(=O)C5(F)CN(C(=O)/C=C/CN(C)C)C5)CC4)c3)nc2c1 [Example 28, (E)-1-(3-(4-(4-(7-((3,5-dimethoxyphenyl)(prop-2-yn-1-yl)amino)quinoxalin-2-yl)-1H-pyrazol-1-yl)piperidine-1-carbonyl)-3-fluoroazetidin-1-yl)-4-(dimethylamino)but-2-en-1-one]	6	3	6	
C=CC(=O)N1CC(CN2CCC(n3cc(-c4cnc5ccc(Nc6cc(OC)cc(OC)c6)cc5n4)cn3)CC2)(OC)C1 [Example 29, 1-(3-((4-(4-(7-((3,5-dimethoxyphenyl)amino)quinoxalin-2-yl)-1H-pyrazol-1-yl)piperidin-1-yl)methyl)-3-methoxyazetidin-1-yl)prop-2-en-1-one]	50	5	56	
C=CC(=O)N1CC(CN2CCC(n3cc(-c4cnc5ccc(Nc6cc(OC)cc(OC)c6)cc5n4)cn3)CC2)C1 [Example 30, 1-(3-((4-(4-(7-((3,5-dimethoxyphenyl)amino)quinoxalin-2-yl)-1H-pyrazol-1-yl)piperidin-1-yl)methyl)azetidin-1-yl)prop-2-en-1-one]	34	5	62	
